This passage reports IC50 and duration of effect results from patent US6215002A, “Pyrrolopyrrolone derivatives as inhibitors of neutrophil elastase” (priority 1996, dated 2001).

Where a name gives a salt, the structure may show the parent alone.

Assay [1] concerns the target T1, human neutrophil elastase (Homo sapiens, UniProt P08246).
T1 sequence (P08246 30-267): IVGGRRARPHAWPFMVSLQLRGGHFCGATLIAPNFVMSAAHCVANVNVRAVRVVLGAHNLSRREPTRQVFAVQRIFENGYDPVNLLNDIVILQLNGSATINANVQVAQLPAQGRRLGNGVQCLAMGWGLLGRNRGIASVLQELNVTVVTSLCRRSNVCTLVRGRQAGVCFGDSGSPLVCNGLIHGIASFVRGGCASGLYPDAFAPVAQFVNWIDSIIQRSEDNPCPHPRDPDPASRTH
As to the kind of experiment: In vitro assay of human neutrophil elastase (HNE). The settings on record: 118 nM purified human neutrophil elastase, pH 8.6, 15 min incubation at 30° C., MeO-succinyl-alanyl-alanyl-prolyl-valyl-p-nitroanilide substrate; read-out: HNE IC50. It is filed as biochemical. In short, it runs like this: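 Residual activity was taken as the 10 min rate of absorbance rise at 405 nm after adding 0.6 mM MeO-succinyl-AAPV-p-nitroanilide. Curve fitting of activity against concentration gave IC50.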

Assay [2] relates to Intracellular elastase. Description: Oral in vivo model using IL-8 induced lung infiltrates for the assessment of intracellular elastase inhibition (hamster test). The settings on record: effective dose of less than 40 mg/kg, IL-8 intratracheal. The method, then: An Oral in vivo Model Using IL-8 Induced Lung Infiltrates For the Assessment of Intracellular Elastase Inhibition
Adult hamsters (100-150 g) are randomised into groups (n=4) and fasted overnight. Under gaseous anaesthetic (3% isofluorane) animals are dosed orally with 1 mL/100 g water as vehicle or containing predissolved compounds. Either at the same time, or subsequently under anaesthetic, animals are dosed intratracheally with 1 ug recombinant human IL-8 in 100 uL sterile saline. Six hours after IL-8 dosing animals are sacrificed using intrapertoneal pentobarbitone. The lungs are ravaged with 2×2.5 mL sterile saline and femurs are removed by dissection.
Intracellular elastase is prepared from neutrophils collected by lavage and from femoral bone marrow. This is achieved by sonication of the neutrophils and centrifugation to yield intracellular granules. These are disrupted by freeze/thawing and sonication. Elastase and myeloperoxidase assays are then performed on these samples to assess the efficacy of the compounds and to normalise for neutrophil recovery.

Take `CC(C)[C@H]1C(=O)N(S(C)(=O)=O)[C@H]2CCN(C(=O)c3ccc(CNC4CC4)cc3)[C@H]12.Cl` (relative stereo) [Example 180, rel-(3R,3aR,6aS)-4(4-Cyclopropylaminomethyl-benzoyl)-3-isopropyl-1-methanesulfonyl-hexahydro-pyrrolo[3,2-b]pyrrol-2-one hydrochloride]: the IC50 (usually the concentration that gives 50% inhibition) in assay [1] came out at 42 nM. The duration of effect entry in assay [2] is given as “at least 6 hours”.

On to `CCCN(C)Cc1ccc(C(=O)N2CC[C@H]3[C@H]2[C@@H](C(C)C)C(=O)N3S(C)(=O)=O)cc1.Cl` (relative stereo) [Example 181, rel-(3R,3aR,6aS)-3-Isopropyl-1-methanesulfonyl-4-{4-[(methyl-propyl-amino)-methyl]-benzoyl}-hexahydro-pyrrolo[3,2-b]pyrrol-2-one hydrochloride], for which the IC50 in assay [1] is 42 nM. Also, in assay [2], the duration of effect result is reported as “at least 6 hours”.

As for `CCN(CC)Cc1ccc(C(=O)N2CC[C@H]3[C@H]2[C@@H](C(C)C)C(=O)N3S(C)(=O)=O)cc1.Cl` (relative stereo) [Example 182, rel-(3R,3aR,6aS)-4-(4-Diethylaminomethyl-benzoyl)-3-isopropyl-1-methanesulfonyl-hexahydro-pyrrolo[3,2-b]pyrrol-2-one hydrochloride], the IC50 in assay [1] came to 43 nM. Further, in assay [2], the duration of effect entry is recorded as “at least 6 hours”.

As for `COC(=O)[C@@H]1CCCN1Cc1ccc(C(=O)N2CC[C@H]3[C@H]2[C@@H](C(C)C)C(=O)N3S(C)(=O)=O)cc1` (relative stereo) [Example 183, 1-[4-(rel-6R-Isopropyl-4-methanesulfonyl-5-oxo-hexahydro-(3aS,6aR)-pyrrolo[3,2-b]pyrrole-1-carbonyl)-benzyl]-pyrrolidine-2S-carboxylic acid methyl ester hydrochloride], in assay [1], the IC50 is 46 nM. Besides, the duration of effect entry in assay [2] is “at least 6 hours”.

In the case of `CC(C)[C@H]1C(=O)N(S(C)(=O)=O)[C@H]2CCN(C(=O)c3ccc(CN4CCC5CCCCC5C4)cc3)[C@H]12.Cl` (relative stereo) [Example 184, rel-(3R,3aR,6aS)-3-Isopropyl-1-methanesulfonyl-4-[4-(octahydro-isoquinolin-2-ylmethyl)-benzoyl]-hexahydro-pyrrolo[3,2-b]pyrrol-2-one hydrochloride], the IC50 in assay [1] was determined as 12 nM. In assay [2], the duration of effect entry is listed as “at least 6 hours”.

On to `CC(=O)N1CCN(Cc2ccc(C(=O)N3CC[C@H]4[C@H]3[C@@H](C(C)C)C(=O)N4S(C)(=O)=O)cc2)CC1` (relative stereo) [Example 185, rel-(3R,3aR,6aS)-4-[4-Acetyl-piperazin-1-ylmethyl)-benzoyl]-3-isopropyl-1-methanesulfonyl-hexahydro-pyrrolo[3,2-b]pyrrol-2-one hydrochloride], for which, in assay [1], the IC50 was found to be 33 nM. The duration of effect entry in assay [2] is “at least 6 hours”.

For `CC(C)[C@H]1C(=O)N(S(C)(=O)=O)[C@H]2CCN(C(=O)c3ccc(CN4C(C)CCC4C)cc3)[C@H]12.Cl` (relative stereo) [Example 186, rel-(3R,3aR,6aS)-4-[4-(2,5-Dimethyl-pyrrolidin-1-ylmethyl)-benzoyl]-3-isopropyl-1-methanesulfonyl-hexahydro-pyrrolo[3,2-b]pyrrol-2-one hydrochloride], the IC50 in assay [1] stood at 53 nM. In addition, the duration of effect result in assay [2] is given as “at least 6 hours”.

For the molecule `CC(C)[C@H]1C(=O)N(S(C)(=O)=O)[C@H]2CCN(C(=O)c3ccc(CN4CCC(C(N)=O)CC4)cc3)[C@H]12.Cl` (relative stereo) [Example 187, rel-1-[4-(6R-Isopropyl-4-methanesulfonyl-5-oxo-hexahydro-(3aS,6aR)-pyrrolo[3,2-b]pyrrole-1-carbonyl)-benzyl]-piperidine-4-carboxylic acid amide hydrochloride], in assay [1], the IC50 came to 43 nM. Besides, in assay [2], the duration of effect result is “at least 6 hours”.

Regarding `CC(C)[C@H]1C(=O)N(S(C)(=O)=O)[C@H]2CCN(C(=O)c3ccc(CN4CCNCC4)cc3)[C@H]12.Cl.Cl` (relative stereo) [Example 188, rel-(3R,3aR,6aS)-3-Isopropyl-1-methanesulfonyl-4-(4-piperazin-1-ylmethyl-benzoyl)-hexahydro-pyrrolo[3,2-b]pyrrol-2-one dihydrochloride], the IC50 in assay [1] turned out to be 67 nM. Moreover, in assay [2], the duration of effect entry is listed as “at least 6 hours”.

Regarding `CC(C)[C@H]1C(=O)N(S(C)(=O)=O)[C@H]2CCN(C(=O)c3cccc(CN4CCN(C)CC4)c3)[C@H]12.Cl.Cl` (relative stereo) [Example 189, rel-(3R,3aR,6aS)-3-Isopropyl-1-methanesulfonyl-4-[3-(4-methyl-piperazin-1-ylmethyl)-benzoyl]-hexahydro-pyrrolo[3,2-b]pyrrol-2-one dihydrochloride], the IC50 in assay [1] came to 62 nM. Besides, in assay [2], the duration of effect result is given as “at least 6 hours”.

Turning to `CC(C)[C@H]1C(=O)N(S(C)(=O)=O)[C@H]2CCN(C(=O)c3cccc(CNC4CC4)c3)[C@H]12.Cl` (relative stereo) [Example 190, rel-(3R,3aR,6aS)-4-(3-Cyclopropylaminomethyl-benzoyl)-3-isopropyl-1-methanesulfonyl-hexahydro-pyrrolo[3,2-b]pyrrol-2-one hydrochloride], the IC50 in assay [1] stood at 24 nM. In addition, the duration of effect result in assay [2] is listed as “at least 6 hours”.

With `CC(C)[C@H]1C(=O)N(S(C)(=O)=O)[C@H]2CCN(C(=O)c3cccc(CN4CCC(C(N)=O)CC4)c3)[C@H]12.Cl` (relative stereo) [Example 191, rel-1-[3-(6R-Isopropyl-4-methanesulfonyl-5-oxo-hexahydro-(3aS,6aR)-pyrrolo[3,2-b]pyrrole-1-carbonyl)-benzyl]-piperidine-4-carboxylic acid amide hydrochloride], the 50% inhibitory concentration (IC50) in assay [1] came to 41 nM. Further, in assay [2], the duration of effect result is given as “at least 6 hours”.

Turning to `CC(C)[C@H]1C(=O)N(S(C)(=O)=O)[C@H]2CCN(C(=O)c3cccc(CN4CCCCC4)c3)[C@H]12` (relative stereo) [Example 192, rel-(3R,3aR,6aS)-3-Isopropyl-1-methanesulfonyl-4-(3-piperidin-1-ylmethyl-benzoyl)-hexahydro-pyrrolo]3,2-b]pyrrol-2-one hydrochloride], the IC50 in assay [1] came out at 61 nM. Besides, in assay [2], the duration of effect entry is reported as “at least 6 hours”.

In the case of `CC(C)[C@H]1C(=O)N(S(C)(=O)=O)[C@H]2CCN(C(=O)c3cccc(CN4CCCC4)c3)[C@H]12` (relative stereo) [Example 193, rel-(3R,3aR,6aS)-3-Isopropyl-1-methanesulfonyl-4-(3-pyrroidin-1-ylmethyl-benzoyl)-hexahydro-pyrrolo[3,2-b]pyrrol-2-one hydrochloride], the IC50 in assay [1] is 50 nM. Also, the duration of effect result in assay [2] is “at least 6 hours”.

Regarding `CC(C)[C@H]1C(=O)N(S(C)(=O)=O)[C@H]2CCN(C(=O)c3ccc(CN4C(C)CCCC4C)cc3)[C@H]12.Cl` (relative stereo) [Example 200, rel-(3R,3aR,6aS)-4-[4-(2,6-Dimethyl-piperidin-1-ylmethyl)-benzoyl]-3-isopropyl-1-methanesulfonyl-hexahydropyrrolo[3,2-b]pyrrol-2-one hydrochloride], in assay [1], the IC50 was 53 nM. The duration of effect entry in assay [2] is listed as “at least 6 hours”.

As for `CC(C)[C@H]1C(=O)N(S(C)(=O)=O)[C@H]2CCN(C(=O)c3ccc(CN(C(C)C)C(C)C)cc3)[C@H]12` (relative stereo) [Example 201, rel-(3R,3aR,6aS)-4-{4-(Diisopropylamino)-methy]benzoyl}3-isopropyl-1-methanesulfonyl-hexahydro-pyrrolo[3,2-b]pyrrol-2-one hydrochloride], the IC50 in assay [1] turned out to be 46 nM. The duration of effect result in assay [2] was “at least 6 hours”.

In the case of `CC(C)[C@H]1C(=O)N(S(C)(=O)=O)[C@H]2CCN(C(=O)c3ccco3)[C@H]12` (relative stereo) [Example 248, rel-(3R,3aR,6aS)-4-(Furan-2-carbonyl)-3-isopropyl-1-methanesulfonyl-hexahydro-pyrrolo[3,2-b]pyrrol-2-one], the IC50 in assay [1] came to 60 nM. In addition, the duration of effect entry in assay [2] is “at least 6 hours”.

Take `CC(C)[C@H]1C(=O)N(S(C)(=O)=O)[C@H]2CCN(C(=O)c3cccs3)[C@H]12` (relative stereo) [Example 249, rel-(3R,3aR,6aS)-3-Isopropyl-1-methanesulfonyl-4-(thiophene-2-carbonyl)-hexahydro-pyrrolo[3,2-b]pyrrol-2-one]: the 50% inhibitory concentration (IC50) in assay [1] stood at 68 nM. In addition, in assay [2], the duration of effect result is “at least 6 hours”.

Turning to `CC(C)[C@H]1C(=O)N(S(C)(=O)=O)[C@H]2CCN(C(=O)c3ccc(CN4CCCCC4)o3)[C@H]12.Cl` (relative stereo) [Example 250, rel-(3R,3aR,6aS)-3-Isopropyl-1-methanesulfonyl-4-(5-piperidin-1-ylmethyl-furan-2-carbonyl)-hexahydro-pyrrolo[3,2-b]pyrrol-2-one hydrochloride], the IC50 in assay [1] stood at 21 nM. In addition, the duration of effect result in assay [2] is “at least 6 hours”.
